Source: patent publication US5840699A, “Peptide derivatives” (Teikoku Hormone Mfg. Co. Ltd., priority 1995, dated 1998)

Tested on: mouse leukemia P388 cells
Assay: Antitumor activity (increase in life-span) in mice transplanted with mouse leukemia P388 cells
Format: in vivo
Details: relative value of percent increase in life-span (ILS), dolastatin 10 ILS regarded as 1; P388 cells (10^6 per mouse) in abdominal cavity of CDF1 mice; drug intraperitoneally on first and fifth day; observed for 60 days
Procedure: 0.1 ml (10^6 cells per mouse) each of mouse leukemia P388 cells was transplanted into the abdominal cavity of 7-weeks-old CDF1 mice. […] Then, the percent increase in life-span (ILS) was calculated from the results of observation according to the following equation. In the following equation, T designates the median number of days for which the mice of the drug-treated group survived, and C designates the median number of days for which the mice of the control group survived. [formula]
The antitumor activity of each drug is expressed as a relative value based on the antitumor activity of dolastatin 10 for which ILS is regarded as 1.

Q: How did the Antitumor activity turn out when dolastatin 10 was run?
A: 1
